Results reported in ChEMBL document CHEMBL5674860, “Optimized Dual-Glo Assay to identify co-culture-induced drug vulnerabilities in 3D CRC models” (2024).

What was measured:
Assay type in all cases: functional, Homo sapiens
Parameters in all cases: dose or concentration left out as unconfirmed
Colon cancer organoid [1] = assay: Optimized Dual-Glo assay to identify co-culture induced drug vulnerabilities using donated chemical probes and chemogenomics kinase set in O06 CRC organoid and F06 CAF mono and co-culture. […] Cell viability is reported both mono and co-culture models.
Colon cancer organoid [2] = assay: Optimized Dual-Glo assay to identify co-culture induced drug vulnerabilities using donated chemical probes and chemogenomics kinase set in O14 CRC organoid and F14 CAF mono and co-culture. […] Cell viability is reported both mono and co-culture models.
Colon cancer organoid [3] = assay: Optimized Dual-Glo assay to identify co-culture induced drug vulnerabilities using donated chemical probes and chemogenomics kinase set in O20 CRC organoid and F20 CAF mono and co-culture. […] Cell viability is reported both mono and co-culture models.
[4] = Culture type Co-Culture, Transduced with Lucferase2-P2A-EGFP lentivirus
[5] = Culture type Co-Culture, Transduced with Renilla-dsRed lentivirus
[6] = Culture type Mono-Culture, Transduced with Lucferase2-P2A-EGFP lentivirus
[7] = Culture type Mono-Culture, Transduced with Renilla-dsRed lentivirus

Row | SMILES | Cell Viability (Colon cancer organoid [1]; [4]) [%] | Cell Viability (Colon cancer organoid [1]; [5]) [%] | Cell Viability (Colon cancer organoid [1]; [6]) [%] | Cell Viability (Colon cancer organoid [1]; [7]) [%] | Cell Viability (Colon cancer organoid [2]; [4]) [%] | Cell Viability (Colon cancer organoid [2]; [5]) [%] | Cell Viability (Colon cancer organoid [2]; [6]) [%] | Cell Viability (Colon cancer organoid [2]; [7]) [%] | Cell Viability (Colon cancer organoid [3]; [4]) [%] | Cell Viability (Colon cancer organoid [3]; [5]) [%] | Cell Viability (Colon cancer organoid [3]; [6]) [%] | Cell Viability (Colon cancer organoid [3]; [7]) [%]
1 | Cc1cnc(Nc2ccc(F)cc2Cl)nc1-c1c[nH]c(C(=O)N[C@H](CO)c2cccc(Cl)c2)c1 | 51.8597 | 63.6391 | 9.819 | 57.8689 | 10.9302 | 34.4005 | 7.352 | 19.5504 | 6.951 | 113.857 | 5.763 | 41.0342
2 | CCNC(=O)c1cc2c(-c3cc(C(C)(C)O)ccc3Oc3c(C)cc(F)cc3C)cn(C)c(=O)c2[nH]1 [ABBV-744] | 91.6049 | 287.135 | 45.0108 | 272.327 | 55.2801 | 319.971 | 42.072 | 212.265 | 58.1744 | 215.224 | 60.9117 | 122.12
3 | CN(C)C(=O)/C(C#N)=C/c1ccc(-c2nc3cnc4[nH]ccc4c3n2C2CCCCC2)o1 | 95.2227 | 96.9669 | 138.382 | 96.6584 | 115.273 | 92.8472 | 120.035 | 91.5278 | 75.2682 | 130.215 | 113.424 | 104.709
4 | O=C(NNS(=O)(=O)c1ccccc1)c1cc(-c2ccnnc2)ccc1F [WM-2474] | 92.1572 | 93.3483 | 72.4696 | 112.209 | 77.1469 | 98.8333 | 101.234 | 91.9977 | 104.784 | 126.08 | 94.4259 | 109.751
5 | O=c1nc(-c2ccccn2)sc2ccccc12 [BTZO-1] | 150.72 | 152.299 | 108.701 | 93.9423 | 72.8422 | 97.4125 | 100.899 | 88.8475 | 113.092 | 104.485 | 93.617 | 87.2617
6 | CC(C)Oc1ccc(-c2nn([C@@H](C)c3oc4ccc(F)cc4c(=O)c3-c3cccc(F)c3)c3ncnc(N)c23)cc1F [UMBRALISIB] | 96.678 | 112.425 | 122.966 | 119.327 | 152.127 | 105.235 | 156.597 | 100.314 | 102.839 | 87.858 | 157.324 | 122.853
7 | O=C1NC(c2ccccn2)Sc2ccccc21 (stereo unspecified) [BTZO-4] | 120.289 | 168.274 | 120.842 | 96.0026 | 61.6346 | 107.214 | 121.016 | 104.244 | 109.35 | 85.8309 | 124.511 | 93.402
8 | CNCCN1CCC(c2cc(CN(C)C(=O)c3cccc(Oc4ccccc4)c3)ccn2)CC1 | 83.6812 | 129.007 | 98.3617 | 135.689 | 99.3221 | 120.381 | 93.8948 | 118.528 | 67.0647 | 133.473 | 86.7663 | 93.4663
9 | CSc1cccnc1N1CCN(Cc2nc3ccccc3[nH]2)CC1 [A-769] | 120.489 | 139.823 | 101.067 | 109.755 | 93.5096 | 109.84 | 108.274 | 96.7022 | 125.432 | 98.3481 | 117.315 | 102.928
10 | COc1cc(OC)cc(-c2noc(N3CCN(C)C4(CCN(c5ccccc5)CC4)C3)n2)c1 | 67.7845 | 115.277 | 89.2845 | 104.733 | 94.7889 | 110.973 | 95.4006 | 91.5093 | 90.0996 | 110.491 | 105.262 | 93.4153
11 | O=C(NOC[C@H](O)CO)c1ccc(F)c(F)c1Nc1ccc(I)cc1F [MIRDAMETINIB] | 8.8965 | 49.9042 | 7.213 | 36.7215 | 4.141 | 39.571 | 2.016 | 25.7095 | 3.888 | 83.5811 | 5.164 | 45.8585
12 | CCOC(=O)Nc1cc(-c2ccc(C)c(NS(C)(=O)=O)c2)nn2c(C)nnc12 | 112.605 | 266.102 | 81.8905 | 215.442 | 71.1092 | 228.167 | 66.8371 | 176.186 | 38.58 | 177.965 | 39.5437 | 109.867
13 | C[C@@H]1CC(=O)Nc2cccc(-c3ccc4c(c3)c(-c3cnn(C)c3)nn4C)c2N1 | 96.7982 | 166.358 | 47.1538 | 205.908 | 64.6948 | 192.573 | 92.2277 | 159.466 | 69.0231 | 148.573 | 48.9735 | 106.497
14 | COc1ccc2c(c1)O[C@H](c1ccc(OC)c(OC)c1)C[C@@H]2NC(=O)C1(c2ccc3c(c2)OC(F)(F)O3)CC1 [A-1596584] | 86.7173 | 88.6658 | 66.4869 | 108.119 | 97.6687 | 114.369 | 74.3649 | 92.2647 | 72.8626 | 142.746 | 90.2448 | 98.4012
15 | CO[C@@H](C)c1c(Nc2ccc([C@@H](N(C)C(=O)C3CCS(=O)(=O)CC3)C(F)(F)F)cc2)cnc2cc(Cl)nn12 [NVS-MALT1-C] | 50.6957 | 73.6522 | 67.3669 | 85.1011 | 62.8563 | 80.6398 | 85.3196 | 104.147 | 83.6241 | 108.215 | 61.6775 | 90.6676
16 | Cc1c(N2CCNCC2)nc2ccc(Br)cc2c1C(=O)NC[C@H](CCC(=O)O)c1ccccc1Cl [BAY-403] | 78.4474 | 70.4581 | 95.2254 | 113.122 | 128.287 | 83.5136 | 111.567 | 88.9346 | 119.673 | 79.2483 | 97.0551 | 97.643
17 | Cc1cnc(-c2cc(Cl)ccc2F)cc1-n1c(=O)n(CC(N)=O)c2ccccc21 [Al11] | 79.8154 | 66.9379 | 96.9616 | 102.254 | 93.5042 | 89.0527 | 114.229 | 91.7467 | 99.824 | 109.542 | 113.608 | 109.646
18 | CN1CCN(c2ccc(-c3cccc(CN4CCOCC4)c3)cc2NC(=O)c2c[nH]c(=O)cc2C(F)(F)F)CC1 | 91.1397 | 122.014 | 99.8143 | 114.421 | 81.9859 | 136.534 | 110.455 | 90.7791 | 82.2903 | 116.555 | 112.073 | 84.4992
